Measurements reported in patent US20070280915A1, “Combination Therapies Employing A Composition Comprising A Hmg Coa Reductase Inhibitor And A Vitamin B6 Related Compound” (priority 2003, published 2007).

Assays:
CYP2C9 = target: T1, CYP2C9 (Homo sapiens, UniProt P11712); test: CYP2C9 inhibition assay (substrate MFC); assay type: in vitro ADME; conditions: 0.0169 to […] tested, na = concentration-dependent inhibition not observed
T1 construct: purchased Gentest Corp; host or cells: insect cells (baculovirus)
Description: […]. […] All determinations were performed in duplicate.

CYP1A2 = CYP1A2 (Homo sapiens, UniProt P05177); test: CYP1A2 inhibition assay (Supersomes, fluorescent metabolite, substrate CEC); conditions: 0.0169 to […] tested, na = concentration-dependent inhibition not observed
Text: The CYP inhibition assays used microsomes (Supersomes®, Gentest Corp., Woburn, Mass.) prepared from insect cells, each expressing an individual CYP subtype (CYP1A2, CYP2A6, CYP2B6, CYP2C8, CYP2C9, CYP2C19, CYP2D6, CYP2E1 or CYP3A4) expressed from the corresponding human CYP cDNA using a baculovirus expression vector. The microsomes also incorporated supplemental cDNA-expressed human reductase and/or cytochrome b5, as these enzymes stimulate the activity of the CYPs, allowing for a reduction in the amount of enzyme required per reaction (Gentest Corp.). The assays monitored, via fluorescence detection, the formation of a fluorescent metabolite following incubation of the microsomes with a specific CYP substrate. […]
Eight inhibitor and test compound concentrations were tested using 3-fold serial dilutions. […] The amount of metabolic product formed was quantified by fluorescence detection in a fluorescence plate reader utilizing excitation and emission filters that had been optimized for the detection of each metabolite.
Data Analysis—The mean of the duplicate fluorescent signals in the presence and absence (vehicle control) of each compound was calculated and corrected for the background noise. […]

[1] = test system: patients who underwent percutaneous coronary intervention (PCI); test: Randomized double-blinded study of P5P vs placebo in high-risk percutaneous coronary intervention (PCI); assay type: in vivo
Text: Inclusion criteria required prior determination for non-urgent PCI of a single-vessel lesion(s) and identification of ≧1 of the following clinical characteristics determining high risk for procedural-related ischemic complications (Califf R M, Abdelmeguid A E, Kuntz R E, Popma J J, Davidson C J, Cohen E A, Kleiman N S, Mahaffey K W, Topol E J, Pepine C J, et al. Myonecrosis after revascularization procedures. J Am Coll Cardiol 1998; 31:241-251; The ESPRIT Investigators. Novel dosing regimen of eptifibatide in planned coronary stent implantation: a randomised, placebo-controlled trial. Lancet 2000; 356:2037-2044): presence of an acute coronary syndrome (chest pain within 48 hours of PCI), recent AMI (≦7 days), diminished epicardial blood flow, angiographic thrombus, ejection fraction ≦30%, or vein graft lesion. In addition to any general contraindication to the PCI procedure or standard concomitant therapies, major exclusion criteria were creatine kinase (CK-MB) elevation above the upper limit of normal immediately before PCI, electrocardiographic evidence of atrial fibrillation or left bundle branch block, or evidence of any clinically significant abnormal laboratory finding (transaminases, bilirubin, or alkaline phosphatase >1.5 times the upper limit of normal or serum creatinine >1.8 mg/dl). Patients with elevated troponin measurements were permitted in the study provided that the peak troponin value was reported >24 hours before scheduled PCI, with documentation of a decreasing value before revascularization. […] Compliance and reasons for discontinued treatments were recorded for all patients.
Study end points and definitions—The primary objective of the study was to evaluate the feasibility of treatment with P5P as a cardioprotective agent in high-risk elective PCI. The primary end point of infarct size was evaluated by the trapezoidal rule (Press W H, Teukolsky S A, Vetterling W T, Flannery B P. Numerical Recipes. Cambridge, UK: Cambridge University Press, 1994:127-133.) using serial CK-MB enzyme measures performed at baseline and every 6 hours for 24 hours beginning immediately before initiation of PCI. The occurrence of myocardial ischemia within 24 hours after PCI was assessed as a secondary end point using continuous 12-lead electrocardiographic monitoring (Northeast Monitoring, Boston, Mass.). Evidence of periprocedural ischemia was defined as ST-segment depression of >100 μV within a 60-minute period of PCI, lasting ≧1 minute and separated from other episodes by 1 minute. Area under the curve ST-segment deviation was measured from the onset of the first to the last contrast injection. All cardiac markers and ST-segment monitoring data were analyzed by core laboratories blinded to treatment assignment (University of Maryland School of Medicine, Baltimore, Md.; Duke Ischemia Monitoring Laboratory, Durham, N.C.). Additional prespecified secondary end points included the 30-day composite and individual event rates of death; nonfatal infarction; new or worsening heart failure, or recurrent ischemia in addition to net clinical safety, which was defined as the absence of major adverse ischemic events; Thrombolysis In Myocardial Infarction (TIMI) major bleeding; and liver function or coagulation test abnormalities. Acute myocardial infarction (AMI) was defined as CK-MB elevation ≧3 times the upper limit of normal (upper limit of normal 7 ng/ml) and/or troponin T levels […] the upper limit of normal (upper limit of normal 0.1 ng/ml). If previous troponin (or CKMB) values were above the upper limit of normal, values were required to be 50% of the baseline measurement in addition to ≧2 times (≧3 times for CK-MB) the upper limit of normal to meet the definition of AMI. Routine chemistries, complete blood count, and coagulation assays were performed at baseline, 7 days, and 30 days after randomization. […]

T1 sequence (P11712 whole entry): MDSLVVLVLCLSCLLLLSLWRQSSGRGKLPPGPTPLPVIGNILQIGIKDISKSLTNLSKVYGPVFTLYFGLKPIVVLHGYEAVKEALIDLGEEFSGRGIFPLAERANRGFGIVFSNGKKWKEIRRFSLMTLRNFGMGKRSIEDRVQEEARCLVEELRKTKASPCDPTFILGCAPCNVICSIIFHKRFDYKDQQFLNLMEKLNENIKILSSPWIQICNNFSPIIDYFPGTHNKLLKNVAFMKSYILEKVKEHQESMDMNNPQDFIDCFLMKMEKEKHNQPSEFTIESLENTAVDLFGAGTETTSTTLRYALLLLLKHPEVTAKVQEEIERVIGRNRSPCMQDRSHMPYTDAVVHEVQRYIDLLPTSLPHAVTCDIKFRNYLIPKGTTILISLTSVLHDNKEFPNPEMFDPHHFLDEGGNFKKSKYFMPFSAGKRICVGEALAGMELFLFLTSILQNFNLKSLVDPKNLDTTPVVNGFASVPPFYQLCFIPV
Chain of CYP1A2 (P05177 whole entry): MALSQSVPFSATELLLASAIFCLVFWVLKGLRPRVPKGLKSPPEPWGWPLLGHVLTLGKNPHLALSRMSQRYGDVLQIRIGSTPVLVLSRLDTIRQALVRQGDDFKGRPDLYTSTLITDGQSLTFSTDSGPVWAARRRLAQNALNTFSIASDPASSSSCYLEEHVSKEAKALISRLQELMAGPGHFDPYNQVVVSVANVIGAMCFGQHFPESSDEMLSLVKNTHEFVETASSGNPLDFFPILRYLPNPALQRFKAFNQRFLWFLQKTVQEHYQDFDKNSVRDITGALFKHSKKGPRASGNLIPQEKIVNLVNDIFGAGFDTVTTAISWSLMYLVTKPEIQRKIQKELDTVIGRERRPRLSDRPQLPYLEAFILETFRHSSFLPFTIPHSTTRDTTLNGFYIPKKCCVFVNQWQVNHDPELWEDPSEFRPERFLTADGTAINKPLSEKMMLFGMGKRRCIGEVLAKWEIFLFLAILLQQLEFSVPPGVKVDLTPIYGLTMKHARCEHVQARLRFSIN

What does the source list for `Cc1ncc(COP(=O)(O)O)c(C=O)c1O` [P5P, pyridoxal-5-phosphate]?
Pyridoxal 5′-phosphate IC50 (CYP2C9): did not inhibit; Pyridoxal 5′-phosphate IC50 (CYP1A2): did not inhibit; safety issues related to treatment ([1]; 60 patients in safety analyses): No safety issues; Area under the curve ST deviation ([1]; 24 h continuous electrocardiographic ST-monitoring, median (interquartile range)): 1349 (951-2,263), μV-min; Any post-PCI ischemia ([1]; 24 h continuous electrocardiographic ST-monitoring, percent of patients): 14.7-34%; deaths ([1]; 30 days): no deaths; occurrence of 30-day nonfatal AMI ([1]; 30 days, vs 10.0% with placebo, p=1.0): 12.8%; 30-day composite adverse event rate (death, nonfatal AMI, new and/or worsening heart failure, or recurrent ischemia) ([1]; 30 days, vs 15.0% with placebo, p=1.0): 17.9%; abnormalities of routine chemistries or coagulation studies ([1]; at 7 and 30 days, vs placebo): no apparent differences; CK-MB max (mean) ([1]; mean per therapy subgroup, with or without adjunctive statin): 0.73 ng/mL; Time to peak CK-MB ([1]; median (interquartile range)): 11.0 (0-18.0), 36 h; Area under the curve CK-MB ([1]; median (interquartile range), P5P 10 mg/kg oral before PCI, then 5 mg/kg twice daily): 1.1 (0.5-2.4), 39 ng/ml; Change in troponin T ([1]; median (interquartile range), baseline to within 24 hours after PCI): 0 (0 = 0.7), 36 ng/ml; Periprocedural cardiac markers ([1]; median (interquartile range), enteric-coated P5P 10 mg/kg oral before PCI, then 5 mg/kg twice daily 14 days): 18.6 (10.2-34.5),; maximum periprocedural CK-MB level ([1]; patients receiving P5P vs placebo): significantly lower; need for blood product transfusion ([1]; vs 10.00% placebo, p=0.26): 2.5%; occurrence of major bleeding ([1]; vs 10.5% placebo, p=0.27): 2.8%; patients who discontinued drug therapy before completion of the prescribed 2 weeks ([1]; vs 25.0% placebo, p=0.77): 30.8%; median periprocedural CK-MB area under the curve (periprocedural infarct size, primary end point) ([1]; vs 32.9 with placebo, p=0.038): 18.6 ng/mL
